{
  "source": "patent US12209256B2",
  "about": "“System for protein inactivation and recombinant phages for targeted bacterial killing, infection, biodetection, and as a means of protein extraction” (priority 2018, dated 2025)",
  "molecules": {"B1": {"name": "ORF584 (protein, listed as Vibrio cholerae)", "chain": "MDLRVSNAKDLLDKFEEKAVQMESISQLLANAPEDLTLATVQGSLSALASIARDAGEAADRLRTISSAEG"}, "B2": {"name": "Qtip (protein, listed as Vibrio cholerae)", "chain": "MCDFCSEHIDSLDALQSSLEKGTAIIELLDTALSAGIEVSPRVVSCALSAAHQHLQVSEKINRSLQIGCGSKEVLRLVD"}},
  "key": {"[1]": {"tested_on": "V. cholerae carrying the VP882 prophage", "assay": "Growth/lysis assay (OD600), V. cholerae carrying VP882", "format": "cell-based", "procedure": "(§1) Growth, Lysis, and Reporter Assays. Typically, overnight cultures were back diluted 1:1000 into fresh medium with appropriate antibiotics and strains were grown to OD600 0.5-0.6. Cultures were back diluted 1:20, and grown to OD600 0.1, before being dispensed (200 μL) into 96 well plates (Corning Costar 3904). MMC, ara, or aTc was added as specified. […] Plates were shaken at 37° C. and a BioTek Synergy Neo2 Multi-Mode reader was used to measure OD600, OD600 and bioluminescence, or OD600 and fluorescence. […]. In the case of fluorescence assays, M9 supplemented with 0.4% casamino acids (BD-Difco) was used and readings were made by excitation at 588 nm and emission at 633 nm. The glycerol stocks were prepared from three independent colonies of each strain at a single OD600. Care was taken to ensure that the OD600 between these strains was identical prior to storage. Parallel cultures of the same strains were used for viral preparations."}, "[2]": {"tested_on": "phage VP882 vqmAPhage::Tn5 in V. cholerae", "assay": "Viral load by quantitative PCR of viral preparations", "format": "cell-based", "procedure": "qPCR and Viral Preparations. Viral preparations consisted of purified non-chromosomal DNA (ZR BAC kit, Zymo Research) prepared from 2 mL of cells. Following addition of the indicated compounds or water control, the cultures were returned to growth for 3 h prior to harvesting. This alteration in procedure was necessary to enable growth of sufficient cells for use with the viral preparation kit. 0.5 ng of purified non-chromosomal DNA was used for each qPCR reaction. qPCR reactions were performed as described above for qRT-PCR reactions. Data were analyzed by a comparative CT method in which the VP882 phage-specific primer set (JSO-1399×1400) was normalized to the non-phage plasmid-specific primer set (JSO-1401×1402). The reference sample for each comparison was the isogenic strain (Δtdh or WT) that was not induced."}, "[3]": {"tested_on": "V. parahaemolyticus lysogenized with phage VP882", "assay": "Growth/lysis assay (OD600), VP882 lysogen", "format": "cell-based", "details": "for host cell lysis (OD600): wild-type VP882 lysogen, expression induced (ara or aTc) or MMC added", "procedure": "as §1"}, "[4]": {"tested_on": "E. coli, V. cholerae, and V. parahaemolyticus", "assay": "Generalized DPO-based phage kill switch growth/lysis assay (FIG. 4)", "format": "cell-based", "details": "arabinose plus DPO (50 μM synthetic DPO per FIG. 4 legend)", "procedure": "FIG. 4 is a graph showing the growth of E. coli, V. cholerae, and V. parahaemolyticus strains lysogenized with the generalized DPO-based phage kill switch in minimal medium lacking (black bars) or containing (white bars) 50 μM synthetic DPO to induce lysis, where all media contained arabinose.\nas §1"}, "[5]": {"tested_on": "V. parahaemolyticus harboring phage VP882", "assay": "Phage (virion) DNA isolation from culture fluids", "format": "cell-based", "procedure": "Phage DNA Isolation. Phage DNA was purified from phage particles present in the supernatants of lysed cells (virion) and from host cell pellets lysogenized with VP882 (prophage). Prophage DNA was purified using the FosmidMAX kit (Lucigen) according to the manufacturer's protocol for 1.5 mL cultures. Virion DNA was isolated using a Phage DNA isolation kit (Norgen Biotek) including the DNase I and Proteinase K treatment steps indicated in the manufacturer's protocol."}, "HIS-HALO-Gp59": {"tested_on": "HIS-HALO-Gp59", "assay": "Western blot to assess HIS-HALO-Gp59 cleavage", "format": "cell-based, E. coli"}, "Pq-lux [6]": {"tested_on": "Pq-lux", "assay": "Pq-lux reporter assay in V. parahaemolyticus", "format": "cell-based", "details": "VP882 lysogen", "procedure": "as §1"}, "Pgp69-lux": {"tested_on": "Pgp69-lux", "assay": "Pgp69-lux reporter assay in V. parahaemolyticus lysogen", "format": "cell-based", "details": "VP882 lysogen", "procedure": "as §1"}, "phage VP882 cI": {"tested_on": "phage VP882 cI", "assay": "Confocal microscopy of HALO-cI localization (VP882 cI)", "format": "cell-based", "details": "single-cell level in E. coli", "procedure": "(§2) Confocal Microscopy. Overnight cultures, started from single colonies of E. coli (T7Express) carrying HALO and/or SNAP fusions (see Table 2) were back-diluted 1:1000, and grown at 37° C. to OD600˜0.2. Either MMC, aTc, or ethanol in water was added. The so-treated samples were returned to shaking at 37° C. for an additional 60 min prior to live-cell staining and imaging. Live-cell staining was performed using a protocol adapted from (Ke et al., 2016). Briefly, HALO-TMR was added to each sample at 10 μM. The samples were incubated in the dark for 15-20 min at 37° C. The cells were pelleted at 13,000 g×1 min, washed twice with M9 medium, and resuspended in 50-150 μL of fresh M9 medium. 5-10 μL of each sample was spotted onto a glass coverslip and overlaid with a small amount of M9-agar. The samples were imaged on a Leica SP8 Confocal microscope. HALO-TMR was excited with 561 nm light and detected within a range of 579-622 nm. For SNAP-Qtip co-localization experiments, the SNAP-specific dye JF503 (Grimm et al., 2017) was added at 10 μM at the same time as the HALO-TMR reagent was added. SNAP was visualized by excitation at 504 nm and detection within 516-540 nm. All images were acquired under the same conditions (laser power and gain) in LASX (Leica Microsystems). Images were imported into Fiji for processing, which consisted solely of adjusting brightness and contrast (min-max)."}, "Pq-lux [7]": {"tested_on": "Pq-lux", "assay": "Pq-lux reporter assay in recombinant E. coli", "format": "cell-based", "procedure": "as §1"}, "HALO-cI from MJ1": {"tested_on": "HALO-cI from MJ1", "assay": "Confocal microscopy of HALO-cI localization (MJ1 cI)", "format": "cell-based, phage MJ1", "details": "co-expression in E. coli", "procedure": "as §2"}, "lambda HALO-cI": {"tested_on": "lambda HALO-cI", "assay": "Confocal microscopy of HALO-cI localization (lambda cI)", "format": "cell-based", "details": "co-expression in E. coli", "procedure": "as §2"}, "cI": {"tested_on": "cI", "assay": "Co-immunoprecipitation of HALO-cI with HIS-Gp55", "format": "binding, phage VP882", "details": "combined E. coli lysates"}, "[8]": {"tested_on": "HALO-cI repressor from vibriophage VP58.5", "assay": "Confocal microscopy of HALO-cI localization (VP58.5 cI)", "format": "cell-based", "details": "co-expression in E. coli", "procedure": "as §2"}, "[9]": {"details": "synthetic DPO supplied to WT and Δtdh strains, vqmAPhage induced"}, "[10]": {"details": "WT and Δtdh strains, qtip from inducible promoter or MMC"}},
  "data": [
    {"molecule": "Cc1cnc(O)c(C)n1", "note": "[DPO, 3,5-dimethylpyrazine-2-ol]", "values": [
      {"measurement": "additional lysis with exogenous DPO versus endogenously-produced DPO only", "setting": "[1]; WT strain", "result": 25, "unit": "%"},
      {"measurement": "lysis", "setting": "[1]; [9]", "result": "lysis occurred"},
      {"measurement": "additional increase in viral load with exogenous DPO versus endogenous DPO only", "setting": "[2]; WT strain", "result": 35, "unit": "%"},
      {"measurement": "viral load", "setting": "[2]; [9]", "result": "increased in both strains to similar extents"},
      {"measurement": "host cell lysis", "setting": "[3]; minimal medium lacking threonine, DPO added in the absence of induction of VqmAPhage", "result": "no lysis"},
      {"measurement": "host cell lysis", "setting": "[3]; minimal medium lacking threonine, vqmAPhage induced with 0.2% ara, DPO 10 μM", "result": "maximal host cell lysis"},
      {"measurement": "lysis", "setting": "[4]", "result": "maximal lysis"}
    ]},
    {"molecule": "CO[C@@]12[C@H](COC(N)=O)C3=C(C(=O)C(C)=C(N)C3=O)N1C[C@@H]1N[C@@H]12", "note": "[MMC, mitomycin C]", "values": [
      {"measurement": "release of VP882 phage DNA into culture fluids", "setting": "[5]", "result": "VP882 phage DNA could be purified"},
      {"measurement": "HIS-HALO-Gp59 bands on Western blot", "setting": "HIS-HALO-Gp59; recA+ E. coli, MMC-treated", "result": "lower-molecular-weight bands, presumably cleavage products"},
      {"measurement": "HIS-HALO-Gp59 protein on Western blot", "setting": "HIS-HALO-Gp59; ΔrecA E. coli, MMC treatment", "result": "unaffected"},
      {"measurement": "host cell lysis", "setting": "[3]; VP882 phage harboring gp62::Tn5", "result": "do not"},
      {"measurement": "host cell lysis", "setting": "[3]; VP882 phage with a Tn5 in vqmAPhage", "result": "lyse"},
      {"measurement": "light production from Pq-lux", "setting": "Pq-lux [6]", "result": "rapidly increased"},
      {"measurement": "light production from Pgp69-lux", "setting": "Pgp69-lux", "result": "rapidly increased"},
      {"measurement": "offset between activation of Pq-lux and activation of Pgp69-lux", "setting": "Pgp69-lux", "result": 10, "unit": "min"},
      {"measurement": "cI localization (VP882 HALO-cI)", "setting": "phage VP882 cI", "result": "remained diffuse"},
      {"measurement": "Pq-lux light production", "setting": "Pq-lux [7]; recA+ E. coli carrying Pq-lux and HIS-HALO-Gp59", "result": "significant increase in light production"},
      {"measurement": "Pq-lux light production", "setting": "Pq-lux [7]; ΔrecA E. coli carrying Pq-lux and HIS-HALO-Gp59", "result": "no effect"}
    ]},
    {"molecule": "B1", "values": [
      {"measurement": "host cell lysis (OD600)", "setting": "[3]", "result": "lysis"},
      {"measurement": "cI aggregation (MJ1 HALO-cI)", "setting": "HALO-cI from MJ1", "result": "caused aggregation"},
      {"measurement": "cI localization (VP882 HALO-cI)", "setting": "phage VP882 cI", "result": "stripe of cI localization along the length of the cell"},
      {"measurement": "cI localization (VP882 HALO-cI)", "setting": "phage VP882 cI; listed as orf584", "result": "caused aggregation"},
      {"measurement": "phage VP882 Pq expression", "setting": "Pq-lux [7]; orf584 induced, host per Table 2", "result": "de-repression"},
      {"measurement": "cI aggregation (lambda HALO-cI)", "setting": "lambda HALO-cI", "result": "not"}
    ]},
    {"molecule": "B2", "values": [
      {"measurement": "binding of cI during purification of HIS-Gp55", "setting": "cI", "result": "cI binds to Gp55"},
      {"measurement": "lysis", "setting": "[1]; [10]", "result": "Near-complete lysis"},
      {"measurement": "viral production", "setting": "[2]; [10]", "result": "increased viral production"},
      {"measurement": "host cell lysis (OD600)", "setting": "[3]", "result": "host cell lysis comparable to when MMC was added or vqmAPhage was induced"},
      {"measurement": "cI aggregation (MJ1 HALO-cI)", "setting": "HALO-cI from MJ1", "result": "resulted in foci"},
      {"measurement": "cI aggregation (VP58.5 HALO-cI)", "setting": "[8]", "result": "Aggregation also occurred"},
      {"measurement": "cI localization (VP882 HALO-cI)", "setting": "phage VP882 cI", "result": "foci located primarily at the cell poles"},
      {"measurement": "Pq-lux activity", "setting": "Pq-lux [7]; combined reporter plasmid (inducible vqmAPhage, Pq-lux, cI), pTetA-gp55 induced", "result": "sufficient to generate Pq-lux activity"},
      {"measurement": "cI aggregation (lambda HALO-cI)", "setting": "lambda HALO-cI", "result": "No aggregation occurred"}
    ]}
  ]
}
